Source: ChEMBL document CHEMBL1147420, “Synthesis and biological evaluation of novel coumarin derivatives with a 7-azomethine linkage” (2004)

Assays:
Type in all cases: functional
[1] = target: Serine protease 1 (Homo sapiens) (UniProt P07477); assay: Compound was evaluated for in vitro inhibition of trypsin induced proteolysis at 0.1 mM concentration
[2] = target: Chymotrypsinogen B (Homo sapiens) (UniProt P17538); assay: Compound was evaluated for in vitro inhibition of chymotrypsinogen induced proteolysis at 0.1 mM concentration
Sequence of Chymotrypsinogen B (Homo sapiens) (P17538 34-164 limits assumed, other chains not shown): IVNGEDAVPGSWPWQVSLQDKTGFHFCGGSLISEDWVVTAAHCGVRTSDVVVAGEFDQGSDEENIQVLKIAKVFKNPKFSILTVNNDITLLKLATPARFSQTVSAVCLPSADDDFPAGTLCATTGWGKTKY
Sequence of Chymotrypsinogen B (Homo sapiens) (P17538 167-263 limits assumed, other chains not shown): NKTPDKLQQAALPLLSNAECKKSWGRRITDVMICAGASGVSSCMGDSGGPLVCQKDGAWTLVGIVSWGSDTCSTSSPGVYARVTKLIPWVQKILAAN

[3] = target: Serine protease 1 (Homo sapiens) (UniProt P07477); assay: Compound was evaluated for in vitro inhibition of trypsin induced proteolysis at 1 mM concentration
[4] = target: Chymotrypsinogen B (Homo sapiens) (UniProt P17538); assay: Compound was evaluated for in vitro inhibition of chymotrypsinogen acting as esterase at 1 mM concentration
[5] = target: Serine protease 1 (Homo sapiens) (UniProt P07477); assay: Compound was evaluated for in vitro inhibition of trypsin acting as esterase at 1 mM concentration
[6] = target: Serine protease 1 (Homo sapiens) (UniProt P07477); assay: Compound was evaluated for in vitro inhibition of trypsin acting as esterase at 0.1 mM concentration
[7] = Interaction percent with DPPH after 60 minutes was determined at 0.5 mM concentration
[8] = target: Chymotrypsinogen B (Homo sapiens) (UniProt P17538); assay: Compound was evaluated for in vitro inhibition of chymotrypsinogen induced proteolysis at 1 mM concentration
[9] = Interaction percent with DPPH after 20 minutes was determined at 0.5 mM concentration
[10] = Compound was evaluated for percent inhibition of carrageenan induced rat paw edema at 0.005 mmol/kg
[11] = target: Chymotrypsinogen B (Homo sapiens) (UniProt P17538); assay: Compound was evaluated for in vitro inhibition of chymotrypsinogen acting as esterase at 0.1 mM concentration
[12] = Interaction percent with DPPH after 20 minutes was determined at 0.1 mM concentration
[13] = target: T1, Seed linoleate 13S-lipoxygenase-1 (Glycine max) (UniProt P08170); assay: Compound was evaluated for in vitro inhibition of soybean lipoxygenase at 1 mM concentration; no action
T1 sequence (whole entry): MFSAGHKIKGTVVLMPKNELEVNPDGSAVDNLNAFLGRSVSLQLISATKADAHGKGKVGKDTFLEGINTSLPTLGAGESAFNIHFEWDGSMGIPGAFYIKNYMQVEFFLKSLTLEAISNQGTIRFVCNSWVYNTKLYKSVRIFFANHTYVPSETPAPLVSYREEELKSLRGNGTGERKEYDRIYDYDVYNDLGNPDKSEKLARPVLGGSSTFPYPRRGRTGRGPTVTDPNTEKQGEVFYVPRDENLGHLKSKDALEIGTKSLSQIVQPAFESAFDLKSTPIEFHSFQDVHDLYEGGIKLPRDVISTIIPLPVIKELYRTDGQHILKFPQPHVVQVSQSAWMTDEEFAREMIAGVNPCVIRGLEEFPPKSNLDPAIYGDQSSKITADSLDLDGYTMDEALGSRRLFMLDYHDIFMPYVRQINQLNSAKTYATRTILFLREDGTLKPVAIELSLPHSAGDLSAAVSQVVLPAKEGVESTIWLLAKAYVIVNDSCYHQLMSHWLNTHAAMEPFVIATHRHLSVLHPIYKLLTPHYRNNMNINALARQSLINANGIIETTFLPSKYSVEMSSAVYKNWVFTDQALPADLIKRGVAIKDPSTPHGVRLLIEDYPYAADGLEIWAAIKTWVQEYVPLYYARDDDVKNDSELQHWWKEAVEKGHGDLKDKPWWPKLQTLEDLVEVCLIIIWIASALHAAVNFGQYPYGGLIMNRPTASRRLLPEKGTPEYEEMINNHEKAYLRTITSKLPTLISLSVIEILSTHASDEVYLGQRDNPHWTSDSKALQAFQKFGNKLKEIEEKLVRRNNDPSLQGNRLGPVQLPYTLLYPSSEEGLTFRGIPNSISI

[14] = Competition percent of compound with DMSO for hydroxyl radical was determined at 0.1 mM concentration
[15] = Interaction percent with DPPH after 60 minutes was determined at 0.1 mM concentration

Sequence of Serine protease 1 (Homo sapiens) (P07477 whole entry): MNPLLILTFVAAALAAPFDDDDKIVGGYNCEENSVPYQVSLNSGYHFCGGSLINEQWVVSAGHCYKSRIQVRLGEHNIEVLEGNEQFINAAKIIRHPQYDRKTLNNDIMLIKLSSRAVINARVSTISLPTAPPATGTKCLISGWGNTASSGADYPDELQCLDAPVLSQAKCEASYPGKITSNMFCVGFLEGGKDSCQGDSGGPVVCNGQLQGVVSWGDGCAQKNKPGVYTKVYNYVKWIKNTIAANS

Question: Which inhibition [1] does the source give for `CC(=O)CC(c1ccccc1)c1c(O)c2ccccc2oc1=O` (stereo not given) [WARFARIN] here?
Answer: Its inhibition is 92.5%.

Question: What about the inhibition [2] of the same compound?
Answer: Its inhibition is 62.4%.

Question: And the inhibition [3]?
Answer: Its inhibition is 94.8%.

Question: What about the inhibition [4] of the same compound?
Answer: Its inhibition is 98.2%.

Question: What about the inhibition [5] of the same compound?
Answer: Its inhibition is 97.5%.

Question: What about the inhibition [6] of the same compound?
Answer: Its inhibition is 21.2%.

Question: What about the RA [7] of the same compound?
Answer: Its RA is 12.8%.

Question: What about the inhibition [8] of the same compound?
Answer: The inhibition was 86.7%.

Question: What about the RA [9] of the same compound?
Answer: The RA was 10.3%.

Question: And the inhibition in vivo at 5 µmol/kg [10]?
Answer: Its inhibition in vivo at 5 µmol/kg is 41%.

Question: What about the inhibition [11] of the same compound?
Answer: Its inhibition is 18.4%.

Question: What about the RA [12] of the same compound?
Answer: The RA was 9.2%.

Question: What about the inhibition [13] of the same compound?
Answer: Its inhibition is “No action”.

Question: And the Competition [14]?
Answer: The Competition was 95.8%.

Question: And the RA [15]?
Answer: The RA was 24%.
